Laboratory results as given in patent publication US7972815B2, “Method of producing sugar chain using human G4 polypeptide” (Kyowa Hakko Kirin Co., Ltd., priority 1999, dated 2011).
Like-named read-outs stand apart in the source and are kept apart here.

Columns and labels:
[1] = target: T1, β1,3-N-acetylglucosaminyl transferase (G7) (Homo sapiens, UniProt Q9C0J1); test: Substrate specificity of G7 with pyridylaminated oligosaccharides; assay type: biochemical; details: pyridylaminated substrate, 37° C., 16 hours, activity for LNnT defined as 100%
T1 construct: made in house; host or cells: Sf21 insect cells infected with recombinant baculovirus from pVL1393-F2G7
T1 sequence (Q9C0J1 56-378): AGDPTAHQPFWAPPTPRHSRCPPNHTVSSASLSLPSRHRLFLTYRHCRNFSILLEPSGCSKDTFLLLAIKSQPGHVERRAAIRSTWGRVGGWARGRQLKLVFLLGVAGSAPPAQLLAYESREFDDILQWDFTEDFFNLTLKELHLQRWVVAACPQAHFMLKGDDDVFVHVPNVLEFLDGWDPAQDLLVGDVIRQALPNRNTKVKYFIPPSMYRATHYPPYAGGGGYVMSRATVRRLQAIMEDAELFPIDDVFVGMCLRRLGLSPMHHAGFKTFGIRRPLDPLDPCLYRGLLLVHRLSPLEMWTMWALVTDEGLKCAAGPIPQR
Procedure: (§1) The method shown in Example 8 was used as the activity measuring method. Specifically, after the reaction at 37° C. for 14.5 hours in 30 μl of an assay solution [200 mmol/l of MOPS (pH 7.5), 20 mmol/l of UDP-GlcNAc (SIGMA), 20 mmol/l of MnCl2, 50 μmol/l of pyridylaminated sugar chain substrate and 15 μl of the above eluate], products were detected by HPLC. As substrates, LNnT, lacto-N-tetraose (Galβ1-3GlcNAcβ1-3Galβ1-4Glc, hereinafter referred to as “LNT”), lacto-N-fucopentaose II (Galβ1-3(Fucα1-4)GlcNAcβ1-3Galβ1-4Glc, hereinafter referred to as “LNFP-II”), lacto-N-fucopentaose III (Galβ1-4(Fucα1-3)GlcNAcβ1-3Galβ1-4Glc, hereinafter referred to as “LNFP-III”), lacto-N-fucopentaose V (Galβ1-3GlcNAcβ1-3Galβ1-4(Fucα1-3)Glc, hereinafter referred to as “LNFP-V”) and lacto-N-difucohexaose II (Galβ1-3(Fucα1-4)GlcNAcβ1-3Galβ1-4(Fucα1-3)Glc, hereinafter referred to as “LNDFH-II”) (all manufactured by Oxford Glycosystems) were used after fluorescently labeling them with aminopyridine. Fluorescence labeling of these substrates were carried out in accordance with the usual method [Agric. Biol. Chem., 54, 2169 (1990)].
(§2) For each substrate, the reaction was carried using the assay solution with or without UDP-GlcNAc (sugar donor), and then HPLC was carried out and peaks appeared only in the assay solution containing UDP-GlcNAc were defined as products.
(§3) The assay solution after completion of the reaction was treated at 100° C. for 5 minutes and then centrifuged at 10,000×g for 5 minutes, and a portion (5 μl) of the thus obtained supernatant was applied to HPLC.
(§4) The HPLC was carried out by using TSK-gel ODS-80Ts column (4.6×300 mm; Tosoh); 0.02 mol/l ammonium acetate buffer (pH 4.0) was used as the eluate at an elution temperature of 50° C. and at a flow rate of 0.5 ml/min.
(§5) Products were detected by using a fluorescence spectrum photometer FP-920 (JASCO Corporation) (excitation wavelength 320 nm, radiation wavelength 400 nm).
Examination of the substrate specificity of a β1,3-N-acetylglucosaminyl transferase (G7) was carried out using the FLAG peptide-fused G7 polypeptide purified in Example 17.
Substrate specificity of the FLAG peptide-fused G7 polypeptide was examined by the method shown in Example 11(1). The reaction was carried out at 37° C. for 16 hours.

[2] = target: T2, β1,3-N-acetylglucosaminyl transferase (G4) (Homo sapiens, UniProt Q9Y2A9, R328H); test: Substrate specificity of G4 with pyridylaminated oligosaccharides; assay type: biochemical; details: pyridylaminated substrate 50 μmol/l, 37° C., 14.5 hours, activity on LNnT defined as 100%
T2 construct: made in house; host or cells: Sf21 insect cells infected with recombinant baculovirus from pVL1393-F2G4
T2 sequence (Q9Y2A9 38-372 R328H): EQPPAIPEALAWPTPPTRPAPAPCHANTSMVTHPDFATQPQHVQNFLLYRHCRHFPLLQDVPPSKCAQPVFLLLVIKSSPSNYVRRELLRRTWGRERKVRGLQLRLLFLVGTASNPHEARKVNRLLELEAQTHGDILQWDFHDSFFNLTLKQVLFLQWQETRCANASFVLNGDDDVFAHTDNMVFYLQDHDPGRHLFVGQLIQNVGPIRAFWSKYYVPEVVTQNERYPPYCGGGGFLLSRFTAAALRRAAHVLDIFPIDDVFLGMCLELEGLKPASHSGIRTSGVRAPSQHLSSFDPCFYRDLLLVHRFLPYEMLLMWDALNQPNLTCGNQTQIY
Procedure: Examination on the substrate specificity of a β1,3-N-acetylglucosaminyl transferase (G4) was carried out by using the FLAG peptide-fused G4 polypeptide produced as a secreted form in Example 10.
as §1, §2, §3, §4, §5

[3] = target: T3, β1,3-N-acetylglucosaminyl transferase (G3) (Homo sapiens, UniProt Q9NY97); test: Substrate specificity of G3 with pyridylaminated oligosaccharides; assay type: biochemical; details: pyridylaminated substrate, 37° C., 2 hours, activity on LNnT defined as 100%
T3 construct: made in house; host or cells: Sf21 insect cells infected with recombinant baculovirus from pVL1393-F2G3
T3 sequence (Q9NY97 31-397): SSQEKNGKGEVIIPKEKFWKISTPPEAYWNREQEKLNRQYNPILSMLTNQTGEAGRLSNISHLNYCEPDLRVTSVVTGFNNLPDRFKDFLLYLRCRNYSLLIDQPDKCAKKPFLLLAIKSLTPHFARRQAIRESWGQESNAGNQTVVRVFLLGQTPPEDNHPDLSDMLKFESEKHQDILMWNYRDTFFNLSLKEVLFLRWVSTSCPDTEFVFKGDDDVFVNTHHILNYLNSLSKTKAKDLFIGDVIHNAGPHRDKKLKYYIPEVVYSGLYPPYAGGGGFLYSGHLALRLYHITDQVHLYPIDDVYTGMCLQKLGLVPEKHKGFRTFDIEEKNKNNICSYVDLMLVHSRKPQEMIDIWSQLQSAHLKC
Procedure: as §1, §2, §3, §4, §5
Substrate specificity of a β1,3-N-acetylglucosaminyl transferase (G3) was examined using the FLAG peptide-fused G3 polypeptide purified in Example 14.
Substrate specificity of the FLAG peptide-fused G3 polypeptide was examined by the method shown in Example 11(1). The reaction was carried out at 37° C. for 2 hours.

[4] = target: T1, β1,3-N-acetylglucosaminyl transferase (G7); test: Substrate specificity of G7 with unlabeled oligosaccharides; assay type: biochemical; details: unlabeled substrate, 37° C., 15.5 hours, activity for LNnT defined as 100%
Procedure: (§6) The reaction using the glycosyltransferase was carried out as follows. The reaction was carried out at 37° C. for 16 hours in 40 μl of an assay solution [50 mmol/l MOPS (pH 7.5), 5 mmol/l UDP-GlcNAc (SIGMA), 5 mmol/l MnCl2, […] and 10 μl of the above eluate]. Next, the reaction solution was treated at 100° C. for 5 minutes and then centrifuged at 10,000×g for 20 minutes to obtain the supernatant, and a portion thereof was analyzed using HPAE/PAD (High Performance Anion Pulsed Amperometoric Detection; manufactured by DIONEX). The specific method was carried out in the usual way [Anal. Biochem., 189, 151 (1990), J. Biol. Chem., 273, 433 (1998)].
(§7) As substrates, the following unlabeled oligosaccharides were used: lactose (Galβ1-4Glc), N-acetyllactosamine (Galβ1-4GlcNAc, hereinafter referred to as “LacNAc” in some cases), LNnT, LNT and lacto-N-neohexaose (Galβ1-4GlcNACβ1-3Galβ1-4GlcNAcβ1-3Galβ1-4Glc, hereinafter referred to as “LNnH”).
as §2
(§8) In identifying the product, coincidence of its elution time with that of a standard sugar chain was used as the index. As the standard sugar chains, GlcNAcβ1-3Galβ1-4Glc, GlcNAcβ1-3Galβ1-4GlcNAc and GlcNAcβ1-3Galβ1-4GlcNAcβ1-3Galβ1-4Glc were used.
Substrate specificity of the FLAG peptide-fused G7 polypeptide was examined using the method shown in Example 11(2). The enzyme reaction was carried out at 37° C. for 15.5 hours.

[5] = target: T3, β1,3-N-acetylglucosaminyl transferase (G3); test: Substrate specificity of G3 with unlabeled oligosaccharides; assay type: biochemical; details: unlabeled substrate, 37° C., 2 hours, activity for LNnT defined as 100%
Procedure: as §6, §7, §2, §8
Substrate specificity of the FLAG peptide-fused G3 polypeptide was examined by the method shown in Example 11(2). The enzyme reaction was carried out at 37° C. for 2 hours.

[6] = target: T2, β1,3-N-acetylglucosaminyl transferase (G4); test: Substrate specificity of G4 with unlabeled oligosaccharides (HPAE/PAD); assay type: biochemical; details: unlabeled substrate, 37° C., 16 hours, activity on LNnT defined as 100%
Procedure: as §6, §7, §2, §8

[7] = target: T4, β3GnT (Homo sapiens, UniProt Q9NY97); details: reported values, Proc. Natl. Acad. Sci. USA, 96, 406 (1999), cited from earlier work
T4 sequence (Q9NY97 1-397): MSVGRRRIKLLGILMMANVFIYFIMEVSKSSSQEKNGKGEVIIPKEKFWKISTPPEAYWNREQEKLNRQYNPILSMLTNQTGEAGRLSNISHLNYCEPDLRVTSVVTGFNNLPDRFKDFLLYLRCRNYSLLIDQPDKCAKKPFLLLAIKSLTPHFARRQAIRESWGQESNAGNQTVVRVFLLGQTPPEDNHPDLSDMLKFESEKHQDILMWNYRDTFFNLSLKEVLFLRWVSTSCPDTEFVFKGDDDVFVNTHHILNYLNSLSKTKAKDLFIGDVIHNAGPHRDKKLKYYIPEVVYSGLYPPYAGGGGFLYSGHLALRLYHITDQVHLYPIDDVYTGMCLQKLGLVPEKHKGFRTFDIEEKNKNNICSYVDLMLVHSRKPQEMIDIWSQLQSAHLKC

Molecule	Relative activity (%) [1] [%]	Relative activity (%) [2] [%]	Relative activity (%) [3] [%]	Relative activity (%) G7 [4] [%]	Relative activity (%) G3 [5] [%]	Relative activity (%) [6] [%]	Relative activity (%) β3GnT ([7]; Table 4) [%]	Relative activity (%) β3GnT ([7]; Table 6) [%]
CC(=O)N[C@H]1[C@H](O[C@H]2[C@@H](O)[C@@H](CO)O[C@@H](O[C@@H]([C@H](O[C@@H]3O[C@@H](C)[C@@H](O)[C@@H](O)[C@@H]3O)[C@@H](O)C=O)[C@H](O)CO)[C@@H]2O)O[C@H](CO)[C@@H](O[C@@H]2O[C@@H](C)[C@@H](O)[C@@H](O)[C@@H]2O)[C@@H]1O[C@@H]1O[C@H](CO)[C@H](O)[C@H](O)[C@H]1O [LNDFH-II, lacto-N-difucohexaose II]	0	0	0	–	–	–	–	–
CC(=O)N[C@H]1[C@H](O[C@H]2[C@@H](O)[C@@H](CO)O[C@@H](O[C@@H]([C@H](O)[C@@H](O)C=O)[C@H](O)CO)[C@@H]2O)O[C@H](CO)[C@@H](O[C@@H]2O[C@@H](C)[C@@H](O)[C@@H](O)[C@@H]2O)[C@@H]1O[C@@H]1O[C@H](CO)[C@H](O)[C@H](O)[C@H]1O [LNFP-II, lacto-N-fucopentaose II]	0	0	0	–	–	–	–	–
lacto-N-fucopentaose III [LNFP-III]	7.4	4.7	0	–	–	–	–	–
lacto-N-fucopentaose V [LNFP-V]	8.1	65.1	30.8	–	–	–	–	–

Second part, led by results:

Relative activity (%) [1] [%]	Relative activity (%) [2] [%]	Relative activity (%) [3] [%]	Relative activity (%) G7 [4] [%]	Relative activity (%) G3 [5] [%]	Relative activity (%) [6] [%]	Molecule	Relative activity (%) β3GnT ([7]; Table 4) [%]	Relative activity (%) β3GnT ([7]; Table 6) [%]
–	–	–	8.5	21	0	CC(=O)N[C@H]1C(O)O[C@H](CO)[C@@H](O[C@@H]2O[C@H](CO)[C@H](O)[C@H](O)[C@H]2O)[C@@H]1O (stereo partly shown) [LacNAc, N-acetyllactosamine]	95.5	95.5
–	–	–	32.6	128	235	OC[C@H]1O[C@@H](O[C@H]2[C@H](O)[C@@H](O)C(O)O[C@@H]2CO)[C@H](O)[C@@H](O)[C@H]1O (stereo partly shown) [Lactose, lactose]	67.1	67.1
–	–	–	0.05	132	45	lacto-N-neohexaose [LNnH]	–	–
